Entries after “also recorded” stand apart in the source; their conditions may differ. Structures can show the parent of a compound that is named as a salt.

These results are taken from US20250057836A1, “Compositions And Methods Targeting G12 Signaling For Bronchodilator Therapy” (Rutgers, The State University of New Jersey, priority 2017, published 2025).

Assay [1] deals with human precision-cut lung slices (hPCLS). Kind of assay: hPCLS airway dilation assay. In kind it is cell-based.
In assay [2] the test system is AKT phosphorylation at S473 (pAKT). The assay can be described thus: Immunoblot of AKT phosphorylation in HASMCs. The class given is cell-based, human. Background: In western blotting, separated proteins are transferred to a membrane and probed.
Method: Isolation and culture of HASMC. Human lungs were received from the National Disease Research Interchange (Philadelphia, PA, USA) and from the International Institute for the Advancement of Medicine (Edison, NJ, USA) and HASM cells were derived from the tracheas. […] Culture of HASM cells was conducted as described previously (Panettieri et al., 1989a). Briefly, cells were cultured in Ham's F-12 medium supplemented with 100 U mL^−1 penicillin, 0.1 mg mL^−1, streptomycin, 2.5 mg mL^−1 amphotericin B and 10% FBS. Medium was replaced every 72 hours. HASM cells were only used during subculture passages 1-4 due to the strong expression of native contractile proteins (Panettieri et al., 1989b). In pertussis toxin studies, cells were treated with 1 μg/ml of pertussis toxin for 18 hours. […]
Immunoblot analysis. […] Phosphorylation of MYPT1, MLC and AKT were assessed, and band densities were normalized to GAPDH, total MYPT1, total MLC, or total AKT band density.
Statistical analysis. […] For experiments comparing agonist responses in primary cells, conditions were all normalized to the basal condition and subsequently analyzed statistically. GraphPad Prism software (La Jolla, CA, USA) was used to determine statistical significance evaluated by Student's unpaired t-test for two groups or ANOVA with Bonferroni post-test for 3 or more groups. […]
The subject of assay [3] is isoproterenol-mediated cAMP production. The assay can be described thus: cAMP assay in HASMCs. The settings on record: pertussis toxin 18 h, 1 μg/ml; 306±23 fold without PTX. The class given is cell-based, human. The protocol: Isolation and culture of HASMC. Human lungs were received from the National Disease Research Interchange (Philadelphia, PA, USA) and from the International Institute for the Advancement of Medicine (Edison, NJ, USA) and HASM cells were derived from the tracheas. […] Culture of HASM cells was conducted as described previously (Panettieri et al., 1989a). Briefly, cells were cultured in Ham's F-12 medium supplemented with 100 U mL^−1 penicillin, 0.1 mg mL^−1, streptomycin, […] amphotericin B and 10% FBS. Medium was replaced every 72 hours. HASM cells were only used during subculture passages 1-4 due to the strong expression of native contractile proteins (Panettieri et al., 1989b). In pertussis toxin studies, cells were treated with 1 μg/ml of pertussis toxin for 18 hours. All pharmacologic inhibitors were used with DMSO as the vehicle at a final concentration of 0.1% and were used to treat HASMC 30 minutes prior to agonist stimulation.
cAMP Assay. HASMCs were seeded in a 24-well plate until about 80% confluent and serum-deprived overnight. Cells were stimulated and lysed using cAMP-Screen System ELISA from Applied Biosystems (Bedford, MA, USA). Experiment was conducted according to manufacturer's protocol.
A general note: Cyclic AMP is a second messenger, typically raised through Gs and lowered through Gi signalling.

Regarding `COc1ccc(CC(C)NCC(O)c2ccc(O)c(NC=O)c2)cc1` (centres unmarked) [Formoterol, formoterol fumarate dihydrate], the concentration for a half-maximal effect (EC50) (commonly the concentration giving half of the maximal effect) in assay [1] (Homo sapiens, read-out: log EC50, reversal of carbachol-induced bronchoconstriction (converted)) is 0.501 µM.

Regarding pertussis toxin, the “effect on carbachol-induced AKT phosphorylation compared to vehicle” value in assay [2] (pertussis toxin 18 h, 1 μg/ml before carbachol 10 μM 10 min, vehicle 0.01% DMSO) was “little effect”. For the same molecule, in assay [3], the “isoproterenol-mediated cAMP elevation in the presence of carbachol (fold over basal)” value is listed as 461±37 fold.

For the molecule rhosin, the “carbachol-induced phosphorylation of AKT (fold over basal)” value in assay [2] (primary HASMCs, rhosin 10 μM 30 minutes, carbachol 10 μM 10 min, vehicle 4.4±0.8 fold) turned out to be 0.6±0.1 fold. The “bronchodilation of carbachol-preconstricted hPCLS” value in assay [1] (increasing doses of rhosin after carbachol, compared with formoterol) is listed as “comparable to formoterol; also recorded: reverses carbachol-induced bronchoconstriction in a dose-dependent manner”.
